The values that follow come from ChEMBL document CHEMBL1152211, “Structure-activity study at positions 3 and 4 of human neuropeptide S” (Bioorg Med Chem, 2008).

Counter-ions that a name gives are not always drawn. Non-standard residues stand in square brackets, D forms with d. Residues, ends and D or L forms follow the SMILES beside them. *: point of attachment. Arg(NO2) = N=C(NCCC[C@H](N)C(=O)O)N[N+](=O)[O-]; hArg = N=C(N)NCCCC[C@H](N)C(=O)O; Cit = NC(=O)NCCC[C@H](N)C(=O)O; Orn = NCCC[C@H](N)C(=O)O; Dab = NCC[C@H](N)C(=O)O; Nva = CCC[C@H](N)C(=O)O; Abu = CC[C@H](N)C(=O)O; Dap = NC[C@H](N)C(=O)O; Tfa = O=C(C(F)(F)F)*

What all share (type): functional, cell-based
One assay deals with T1, Neuropeptide S receptor (Mus musculus, UniProt Q8BZP8).
T1 sequence (Q8BZP8 whole entry): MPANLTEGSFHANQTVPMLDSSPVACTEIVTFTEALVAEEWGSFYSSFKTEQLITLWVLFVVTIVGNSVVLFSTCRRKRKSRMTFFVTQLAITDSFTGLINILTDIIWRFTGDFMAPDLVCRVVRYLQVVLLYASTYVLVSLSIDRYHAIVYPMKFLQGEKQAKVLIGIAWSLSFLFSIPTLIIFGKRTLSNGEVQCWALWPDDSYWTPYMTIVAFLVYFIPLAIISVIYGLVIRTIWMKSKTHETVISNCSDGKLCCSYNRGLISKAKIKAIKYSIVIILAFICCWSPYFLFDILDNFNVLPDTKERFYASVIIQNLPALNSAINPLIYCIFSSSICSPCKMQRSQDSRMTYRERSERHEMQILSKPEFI
Description: Agonist activity at mouse NPSR expressed in HEK293 cells assessed as increase in intracellular calcium mobilization by FLIPR. For orientation: A change in cytosolic calcium serves as a functional read-out for many receptors and channels.

In assay [1] the target is T2, Neuropeptide S receptor (Mus musculus) (UniProt Q8BZP8).
T2 sequence (whole entry): T1 sequence (Q8BZP8 whole entry)
Nature of the assay: Agonist activity at mouse NPSR expressed in HEK293 cells assessed as increase in intracellular calcium mobilization by FLIPR relative to baseline.

Assay [2] has as its target T2, Neuropeptide S receptor (Mus musculus). Description: Agonist activity at mouse NPSR expressed in HEK293 cells assessed as increase in intracellular calcium mobilization at 10 uM by FLIPR.

For `CSCC[C@H](NC(=O)CNC(=O)[C@@H](NC(=O)CNC(=O)[C@@H](NC(=O)CNC(=O)[C@H](CC(N)=O)NC(=O)[C@H](CCCCNC(=O)C(F)(F)F)NC(=O)[C@H](Cc1ccccc1)NC(=O)[C@@H](N)CO)C(C)C)[C@@H](C)O)C(=O)N[C@@H](CCCCN)C(=O)N[C@@H](CCCCN)C(=O)N[C@H](C(=O)N[C@@H](CO)C(=O)N[C@@H](Cc1ccccc1)C(=O)N[C@@H](CCC(N)=O)C(=O)N[C@@H](CCCNC(=N)N)C(=O)N[C@@H](C)C(=O)N[C@@H](CCCCN)C(=O)N[C@@H](CO)C(=O)O)[C@@H](C)O` (H-SFK(Tfa)NGVGTGMKKTSFQRAKS-OH), on Neuropeptide S receptor, the EC50 was 0.0851 µM. Also, the Emax in assay [1] worked out at 231%. Regarding `CC[C@H](NC(=O)[C@H](Cc1ccccc1)NC(=O)[C@@H](N)CO)C(=O)N[C@@H](CC(N)=O)C(=O)NCC(=O)N[C@H](C(=O)NCC(=O)N[C@H](C(=O)NCC(=O)N[C@@H](CCSC)C(=O)N[C@@H](CCCCN)C(=O)N[C@@H](CCCCN)C(=O)N[C@H](C(=O)N[C@@H](CO)C(=O)N[C@@H](Cc1ccccc1)C(=O)N[C@@H](CCC(N)=O)C(=O)N[C@@H](CCCNC(=N)N)C(=O)N[C@@H](C)C(=O)N[C@@H](CCCCN)C(=O)N[C@@H](CO)C(=O)O)[C@@H](C)O)[C@@H](C)O)C(C)C` (H-SF[Abu]NGVGTGMKKTSFQRAKS-OH), the EC50 on Neuropeptide S receptor was 0.513 µM. In addition, in assay [1], the maximal effect (Emax) was found to be 218%. Turning to `CSCC[C@H](NC(=O)CNC(=O)[C@@H](NC(=O)CNC(=O)[C@@H](NC(=O)CNC(=O)[C@H](CC(N)=O)NC(=O)[C@H](CCCN/C(N)=N/[N+](=O)[O-])NC(=O)[C@H](Cc1ccccc1)NC(=O)[C@@H](N)CO)C(C)C)[C@@H](C)O)C(=O)N[C@@H](CCCCN)C(=O)N[C@@H](CCCCN)C(=O)N[C@H](C(=O)N[C@@H](CO)C(=O)N[C@@H](Cc1ccccc1)C(=O)N[C@@H](CCC(N)=O)C(=O)N[C@@H](CCCNC(=N)N)C(=O)N[C@@H](C)C(=O)N[C@@H](CCCCN)C(=O)N[C@@H](CO)C(=O)O)[C@@H](C)O` (H-SF[Arg(NO2)]NGVGTGMKKTSFQRAKS-OH), the concentration for a half-maximal effect (EC50) at Neuropeptide S receptor was 0.0219 µM. The Emax in assay [1] stood at 288%. The matching figures for `CSCC[C@H](NC(=O)CNC(=O)[C@@H](NC(=O)CNC(=O)[C@@H](NC(=O)CNC(=O)[C@H](CC(N)=O)NC(=O)[C@H](CCCNC(N)=O)NC(=O)[C@H](Cc1ccccc1)NC(=O)[C@@H](N)CO)C(C)C)[C@@H](C)O)C(=O)N[C@@H](CCCCN)C(=O)N[C@@H](CCCCN)C(=O)N[C@H](C(=O)N[C@@H](CO)C(=O)N[C@@H](Cc1ccccc1)C(=O)N[C@@H](CCC(N)=O)C(=O)N[C@@H](CCCNC(=N)N)C(=O)N[C@@H](C)C(=O)N[C@@H](CCCCN)C(=O)N[C@@H](CO)C(=O)O)[C@@H](C)O` (H-SF[Cit]NGVGTGMKKTSFQRAKS-OH): 0.166 µM and 285%.

For `CSCC[C@H](NC(=O)CNC(=O)[C@@H](NC(=O)CNC(=O)[C@@H](NC(=O)CNC(=O)[C@H](CC(N)=O)NC(=O)[C@H](CCN)NC(=O)[C@H](Cc1ccccc1)NC(=O)[C@@H](N)CO)C(C)C)[C@@H](C)O)C(=O)N[C@@H](CCCCN)C(=O)N[C@@H](CCCCN)C(=O)N[C@H](C(=O)N[C@@H](CO)C(=O)N[C@@H](Cc1ccccc1)C(=O)N[C@@H](CCC(N)=O)C(=O)N[C@@H](CCCNC(=N)N)C(=O)N[C@@H](C)C(=O)N[C@@H](CCCCN)C(=O)N[C@@H](CO)C(=O)O)[C@@H](C)O` (H-SF[Dab]NGVGTGMKKTSFQRAKS-OH), the EC50 at Neuropeptide S receptor was 0.204 µM. In assay [1], the Emax amounted to 207%.

As to `CSCC[C@H](NC(=O)CNC(=O)[C@@H](NC(=O)CNC(=O)[C@@H](NC(=O)CNC(=O)[C@H](CC(N)=O)NC(=O)[C@H](CN)NC(=O)[C@H](Cc1ccccc1)NC(=O)[C@@H](N)CO)C(C)C)[C@@H](C)O)C(=O)N[C@@H](CCCCN)C(=O)N[C@@H](CCCCN)C(=O)N[C@H](C(=O)N[C@@H](CO)C(=O)N[C@@H](Cc1ccccc1)C(=O)N[C@@H](CCC(N)=O)C(=O)N[C@@H](CCCNC(=N)N)C(=O)N[C@@H](C)C(=O)N[C@@H](CCCCN)C(=O)N[C@@H](CO)C(=O)O)[C@@H](C)O` (H-SF[Dap]NGVGTGMKKTSFQRAKS-OH), the EC50 on Neuropeptide S receptor was 0.24 µM. The Emax in assay [1] was found to be 196%. The matching figures for `CCC[C@H](NC(=O)[C@H](Cc1ccccc1)NC(=O)[C@@H](N)CO)C(=O)N[C@@H](CC(N)=O)C(=O)NCC(=O)N[C@H](C(=O)NCC(=O)N[C@H](C(=O)NCC(=O)N[C@@H](CCSC)C(=O)N[C@@H](CCCCN)C(=O)N[C@@H](CCCCN)C(=O)N[C@H](C(=O)N[C@@H](CO)C(=O)N[C@@H](Cc1ccccc1)C(=O)N[C@@H](CCC(N)=O)C(=O)N[C@@H](CCCNC(=N)N)C(=O)N[C@@H](C)C(=O)N[C@@H](CCCCN)C(=O)N[C@@H](CO)C(=O)O)[C@@H](C)O)[C@@H](C)O)C(C)C` (H-SF[Nva]NGVGTGMKKTSFQRAKS-OH): 0.135 µM and 207%. The matching figures for `CSCC[C@H](NC(=O)CNC(=O)[C@@H](NC(=O)CNC(=O)[C@@H](NC(=O)CNC(=O)[C@H](CC(N)=O)NC(=O)[C@H](CCCN)NC(=O)[C@H](Cc1ccccc1)NC(=O)[C@@H](N)CO)C(C)C)[C@@H](C)O)C(=O)N[C@@H](CCCCN)C(=O)N[C@@H](CCCCN)C(=O)N[C@H](C(=O)N[C@@H](CO)C(=O)N[C@@H](Cc1ccccc1)C(=O)N[C@@H](CCC(N)=O)C(=O)N[C@@H](CCCNC(=N)N)C(=O)N[C@@H](C)C(=O)N[C@@H](CCCCN)C(=O)N[C@@H](CO)C(=O)O)[C@@H](C)O` (H-SF[Orn]NGVGTGMKKTSFQRAKS-OH): 0.0316 µM and 318%. The matching figures for `CSCC[C@H](NC(=O)CNC(=O)[C@@H](NC(=O)CNC(=O)[C@@H](NC(=O)CNC(=O)[C@H](CC(N)=O)NC(=O)[C@H](CCCCNC(=N)N)NC(=O)[C@H](Cc1ccccc1)NC(=O)[C@@H](N)CO)C(C)C)[C@@H](C)O)C(=O)N[C@@H](CCCCN)C(=O)N[C@@H](CCCCN)C(=O)N[C@H](C(=O)N[C@@H](CO)C(=O)N[C@@H](Cc1ccccc1)C(=O)N[C@@H](CCC(N)=O)C(=O)N[C@@H](CCCNC(=N)N)C(=O)N[C@@H](C)C(=O)N[C@@H](CCCCN)C(=O)N[C@@H](CO)C(=O)O)[C@@H](C)O` (H-SF[hArg]NGVGTGMKKTSFQRAKS-OH): 0.0107 µM and 288%. For the compound H-SFCNGVGTGMKKTSFQRAKS-OH, the concentration giving a half-maximal response (EC50) on Neuropeptide S receptor was 0.372 µM. In addition, the maximum response (Emax) in assay [1] worked out at 256%.

H-SFGNGVGTGMKKTSFQRAKS-OH: at Neuropeptide S receptor, the EC50 was 1.26 µM. Also, the Emax in assay [1] turned out to be 264%. The matching figures for H-SFHNGVGTGMKKTSFQRAKS-OH: 1.55 µM and 273%. The matching figures for H-SFKNGVGTGMKKTSFQRAKS-OH: 0.0182 µM and 290%. The matching figures for H-SFQNGVGTGMKKTSFQRAKS-OH: 0.129 µM and 295%. H-SFRFGVGTGMKKTSFQRAKS-OH: in assay [2], the Activity was 118%.

On to “H-SFRNGVGTGMKKTSFQRAKS-OH [NEUROPEPTIDE S]”, for which the EC50 at Neuropeptide S receptor is 0.012 µM. In addition, the Emax in assay [1] stood at 234%. For H-SFRQGVGTGMKKTSFQRAKS-OH, the concentration giving a half-maximal response (EC50) at Neuropeptide S receptor is 0.562 µM. In addition, in assay [1], the Emax worked out at 210%. As for H-SFRTGVGTGMKKTSFQRAKS-OH, the EC50 at Neuropeptide S receptor was 0.102 µM. Also, in assay [1], the Emax amounted to 253%.

Turning to H-SFSNGVGTGMKKTSFQRAKS-OH, the Activity in assay [2] was found to be 175%. With H-SFTNGVGTGMKKTSFQRAKS-OH, the EC50 on Neuropeptide S receptor was 0.871 µM. In addition, the maximal effect (Emax) in assay [1] was 272%.

As to H-SFVNGVGTGMKKTSFQRAKS-OH, the Activity in assay [2] was 129%. Still for that read-out and setting: the result for H-SFYNGVGTGMKKTSFQRAKS-OH reads 73%.

For orientation: EC50 means the concentration at which the effect is half-maximal. What is called Emax is the size of the effect at its maximum, as opposed to the concentration needed.
